Here are results for 13 compounds from PMC7655065, “Effect of 3-subsitution of quinolinehydroxamic acids on selectivity of histone deacetylase isoforms” (Journal of Enzyme Inhibition and Medicinal Chemistry, 2020).

What is called IC50 is the point on the concentration scale where inhibition reaches its midpoint.

In one experiment the target is T1, HDAC1 (Homo sapiens, UniProt Q13547).
T1 construct: EurofinPanlabs (Taipei, Taiwan)
In words: HDAC biochemical assay (Fluor-de-Lys), HDAC1. The conditions noted are these: for IC50: human recombinant HDAC1, values > 10 μM estimated from best curve fitting; for Selectivity ratio of HDAC1 over HDAC6: IC50 HDAC1 / IC50 HDAC6.

Experiment [1] concerns A549 cells. In words: Sulforhodamine B antiproliferative assay, A549. The note with it: Homo sapiens; A549 cells, SRB, 48 h; values > 10 μM estimated from best curve fitting; read-out: Antiproliferative activity IC50, A549. In kind it is cell-based. Here is the method: (§1) All human cancer cells were maintained in RPMI 1640 medium supplemented with 10% FBS and penicillin (100 units/ml)/streptomycin (100 µg/ml)/amphotericin B (0.25 µg/ml). All cells were maintained in humidified air containing 5% CO2 at 37 °C and cultured every 2–3 days. […]
(§2) Cells were seeded at the density of 5000 cells/well into 96-plate overnight. Basal cells were fixed with 10% trichloroacetic acid (TCA) to represent the cell population at the time of compound addition (T0). After additional incubation of DMSO (C) or different doses of test compounds (Tx) for 48 h, cells were fixed with 10% TCA and stained with SRB at 0.4% (w/v) in 1% AcOH. Unbound SRB was washed out using 1% AcOH and SRB bound cells were solubilised with 10 mM Trizma base. The absorbance was read at a wavelength of 515 nm. The 50% growth inhibition (GI50) was calculated by 100 − [(Tx – T0)/(C – T0)] × 100.

Another experiment relates to HCT116 cells. In words: Sulforhodamine B antiproliferative assay, HCT116. In kind it is cell-based. The note with it: Homo sapiens, HCT-116, SRB, 48 h, values > 10 μM estimated from best curve fitting. Here is the method:
as §1, §2

A further experiment addresses T2, HDAC8 (Homo sapiens, UniProt Q9BY41).
T2 construct: EurofinPanlabs (Taipei, Taiwan)
T2 sequence (Q9BY41 1-377): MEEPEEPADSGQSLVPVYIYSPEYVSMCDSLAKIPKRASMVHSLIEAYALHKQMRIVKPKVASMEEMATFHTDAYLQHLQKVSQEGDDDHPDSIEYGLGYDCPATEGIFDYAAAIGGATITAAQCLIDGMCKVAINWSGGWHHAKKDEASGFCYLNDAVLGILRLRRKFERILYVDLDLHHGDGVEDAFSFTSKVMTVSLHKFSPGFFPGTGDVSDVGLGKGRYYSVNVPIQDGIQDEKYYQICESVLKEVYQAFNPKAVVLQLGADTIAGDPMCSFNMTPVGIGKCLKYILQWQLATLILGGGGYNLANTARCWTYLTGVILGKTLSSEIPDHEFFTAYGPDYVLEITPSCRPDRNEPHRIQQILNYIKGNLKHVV
The experiment is described as follows: HDAC biochemical assay (Fluor-de-Lys), HDAC8. The note with it: for IC50: human recombinant HDAC8; for Selectivity ratio of HDAC8 over HDAC6: IC50 HDAC8 / IC50 HDAC6.

Another experiment concerns the target T3, HDAC6 (Homo sapiens, UniProt Q9UBN7).
T3 construct: EurofinPanlabs (Taipei, Taiwan)
T3 sequence (Q9UBN7 1-1215): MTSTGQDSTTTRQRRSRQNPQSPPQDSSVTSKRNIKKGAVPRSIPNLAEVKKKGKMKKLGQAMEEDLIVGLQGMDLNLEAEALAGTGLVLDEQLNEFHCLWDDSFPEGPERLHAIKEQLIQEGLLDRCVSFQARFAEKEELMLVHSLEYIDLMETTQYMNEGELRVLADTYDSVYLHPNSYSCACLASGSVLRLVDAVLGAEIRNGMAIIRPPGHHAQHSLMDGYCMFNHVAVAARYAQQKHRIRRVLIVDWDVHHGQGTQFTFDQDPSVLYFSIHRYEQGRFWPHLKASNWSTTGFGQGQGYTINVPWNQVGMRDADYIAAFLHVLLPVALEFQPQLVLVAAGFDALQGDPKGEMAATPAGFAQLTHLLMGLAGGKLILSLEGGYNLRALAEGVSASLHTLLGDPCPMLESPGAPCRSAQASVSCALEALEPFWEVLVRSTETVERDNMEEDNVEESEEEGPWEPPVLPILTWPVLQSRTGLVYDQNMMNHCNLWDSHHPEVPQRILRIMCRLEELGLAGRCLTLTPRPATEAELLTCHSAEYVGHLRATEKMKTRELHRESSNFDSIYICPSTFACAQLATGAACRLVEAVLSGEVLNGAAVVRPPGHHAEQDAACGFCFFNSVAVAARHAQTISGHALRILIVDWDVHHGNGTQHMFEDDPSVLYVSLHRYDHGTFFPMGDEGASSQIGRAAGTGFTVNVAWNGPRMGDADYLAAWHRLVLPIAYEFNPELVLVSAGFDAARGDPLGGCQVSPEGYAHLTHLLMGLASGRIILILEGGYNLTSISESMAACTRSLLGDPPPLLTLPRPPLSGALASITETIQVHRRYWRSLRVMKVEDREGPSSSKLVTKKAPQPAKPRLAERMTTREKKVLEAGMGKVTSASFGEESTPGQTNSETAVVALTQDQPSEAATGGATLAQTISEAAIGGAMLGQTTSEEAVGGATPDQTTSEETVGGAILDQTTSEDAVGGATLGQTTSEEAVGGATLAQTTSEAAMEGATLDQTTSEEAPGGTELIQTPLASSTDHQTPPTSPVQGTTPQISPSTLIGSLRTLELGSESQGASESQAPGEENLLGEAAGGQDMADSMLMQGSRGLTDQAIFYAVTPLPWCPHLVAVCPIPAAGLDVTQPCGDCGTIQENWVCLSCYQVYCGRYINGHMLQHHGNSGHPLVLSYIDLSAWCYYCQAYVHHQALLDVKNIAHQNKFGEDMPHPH
In words: HDAC biochemical assay (Fluor-de-Lys), HDAC6. The note with it: human recombinant HDAC6.

In another experiment the target is T4, HDAC2 (Homo sapiens, UniProt Q92769).
T4 construct: EurofinPanlabs (Taipei, Taiwan)
T4 sequence (Q92769 whole entry): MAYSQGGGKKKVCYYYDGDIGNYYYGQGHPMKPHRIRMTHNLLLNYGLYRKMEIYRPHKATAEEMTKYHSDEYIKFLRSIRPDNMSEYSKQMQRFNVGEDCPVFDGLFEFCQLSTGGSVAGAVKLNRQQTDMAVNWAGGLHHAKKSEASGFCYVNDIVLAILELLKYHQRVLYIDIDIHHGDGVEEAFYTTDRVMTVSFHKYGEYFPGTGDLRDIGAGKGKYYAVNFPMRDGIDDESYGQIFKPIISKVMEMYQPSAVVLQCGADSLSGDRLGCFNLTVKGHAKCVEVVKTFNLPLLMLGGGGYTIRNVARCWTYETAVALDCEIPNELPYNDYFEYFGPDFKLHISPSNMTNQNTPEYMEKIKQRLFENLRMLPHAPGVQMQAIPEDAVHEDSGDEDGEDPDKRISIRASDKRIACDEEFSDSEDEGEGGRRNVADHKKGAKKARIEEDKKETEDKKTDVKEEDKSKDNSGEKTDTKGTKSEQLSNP
The experiment is described as follows: HDAC biochemical assay (Fluor-de-Lys), HDAC2. The conditions noted are these: for IC50: human recombinant HDAC2, dash = no inhibition or activity that could not be fitted to an IC50 curve; for Selectivity ratio of HDAC2 over HDAC6: IC50 HDAC2 / IC50 HDAC6.

Experiment [2] deals with A549 cells. The experiment is described as follows: Western blot analysis of apoptosis and DNA damage markers. It counts as cell-based, human. The conditions noted are these: A549 cells, 48 h; comparison among the three tested compounds. Here is the method: buffer (20 mMTris-HCl pH 7.5, 150 mM NaCl, 1 mM Na2EDTA, 1 mM EGTA, 1% NP-40, 1% sodium deoxycholate, 0.1% SDS, 2.5 mM β-glycerylphosphate, 1 mM Na4P2O7, 5 mM NaF, 1 mM Na3VO4 and protease inhibitor cocktail from Millipore) on ice for 30 min following by centrifugation at 13000 rpm for 30 min. Protein concentrations were determined and equal amounts of protein were separated by 8–15% sodium dodecyl sulphate-polyacrylamide gel electrophoresis (SDS–PAGE) and transferred to poly(vinylidene difluoride) (PVDF) membranes. Membranes were immunoblotted with specific antibodies overnight at 4 °C and then applied to appropriate horseradish peroxidase-conjugated anti-mouse or anti-rabbit IgG secondary antibodies for 1 h at RT. Signals were detected using an enhanced chemiluminescence (Amersham, Buckinghamshire, UK).
(In western blotting, separated proteins are transferred to a membrane and probed.)

T1 sequence (Q13547 whole entry): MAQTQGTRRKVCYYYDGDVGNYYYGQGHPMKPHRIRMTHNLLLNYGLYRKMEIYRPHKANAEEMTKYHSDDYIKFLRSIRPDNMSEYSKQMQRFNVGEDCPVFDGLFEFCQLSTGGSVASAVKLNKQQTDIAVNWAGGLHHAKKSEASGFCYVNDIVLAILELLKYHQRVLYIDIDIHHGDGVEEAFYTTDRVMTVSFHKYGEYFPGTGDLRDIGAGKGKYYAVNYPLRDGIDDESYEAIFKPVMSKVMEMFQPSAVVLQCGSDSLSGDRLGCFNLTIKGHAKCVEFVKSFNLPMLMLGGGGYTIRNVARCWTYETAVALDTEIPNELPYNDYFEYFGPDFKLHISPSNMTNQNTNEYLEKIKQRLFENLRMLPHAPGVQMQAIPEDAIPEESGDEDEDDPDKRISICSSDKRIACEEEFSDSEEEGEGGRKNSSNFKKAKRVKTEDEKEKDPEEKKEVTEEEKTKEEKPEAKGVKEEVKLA

On to `O=C(NO)c1ccc(CNc2cccc3cc(Cl)cnc23)cc1` [Compound 14, 4-[(3-Chloro-quinolin-8-ylamino)-methyl]-N-hydroxy-benzamide], for which the IC50 on HDAC1 is 4.32 µM; with A549 cells [1], 3.14 ± 0.31 µM; in the experiment on HCT116 cells, 4.82 ± 0.29 µM; on HDAC8, 3.64 µM; on HDAC6, 0.0202 µM.
For `O=C(NO)c1ccc(CNc2cccc3cc(Br)cnc23)cc1` [Compound 15, 4-[(3-Bromo-quinolin-8-ylamino)-methyl]-N-hydroxy-benzamide], the IC50 with A549 cells [1] and in the experiment on HCT116 cells was more than 10 µM throughout.
In the case of `O=C(NO)c1ccc(CNc2cccc3cc(I)cnc23)cc1` [Compound 16, N-Hydroxy-4-[(3-iodo-quinolin-8-ylamino)-methyl]-benzamide], the IC50 in the experiment with A549 cells [1] was 3.41 ± 0.9 µM; in the experiment with HCT116 cells, 4.79 ± 0.47 µM.
Turning to `COc1cnc2c(NCc3ccc(C(=O)NO)cc3)cccc2c1` [Compound 17, N-Hydroxy-4-[(3-methoxy-quinolin-8-ylamino)-methyl]-benzamide], the IC50 was more than 10 µM on HDAC2; 4.95 µM at HDAC1; 3.11 ± 0.24 µM in the experiment on A549 cells [1]; 4.76 ± 0.43 µM with HCT116 cells; 2.76 µM on HDAC8; 0.00779 µM at HDAC6. The “Rank of efficacy in cleaving caspase isoforms (Western blot)” value in the experiment with A549 cells [2] is reported as “least potent amongst these three compounds”.
As for `COc1ccccc1-c1cnc2c(NCc3ccc(C(=O)NO)cc3)cccc2c1` [Compound 19, N-Hydroxy-4-(((3–(2-methoxyphenyl)quinolin-8-yl)amino)methyl)benzamide], the IC50 with A549 cells [1] is more than 10 µM; in the experiment with HCT116 cells it was 7.19 ± 0.77 µM.
The like results for `COc1ccc(-c2cnc3c(NCc4ccc(C(=O)NO)cc4)cccc3c2)cc1` [Compound 20, N-Hydroxy-4-(((3–(4-methoxyphenyl)quinolin-8-yl)amino)methyl)benzamide] were, in that order, 9.1 ± 0.3 µM and more than 10 µM.
The like results for `N#Cc1ccccc1-c1cnc2c(NCc3ccc(C(=O)NO)cc3)cccc2c1` [Compound 21, 4-(((3–(2-Cyanophenyl)quinolin-8-yl)amino)methyl)-N-hydroxybenzamide amide] were, in that order, 8.65 ± 2.35 µM and 6 ± 1.56 µM.
As for `N#Cc1cccc(-c2cnc3c(NCc4ccc(C(=O)NO)cc4)cccc3c2)c1` [Compound 22, 4-(((3–(3-Cyanophenyl)quinolin-8-yl)amino)methyl)-N-hydroxybenzamide], the “Selectivity ratio of HDAC2 over HDAC6” value on HDAC2 is reported as “(55)”. The IC50 was 1.98 µM at HDAC2; 9.11 µM on HDAC1; 2.04 ± 0.35 µM in the experiment on A549 cells [1]; 3.18 ± 0.16 µM in the experiment with HCT116 cells; 3.83 µM at HDAC8; 0.0362 µM at HDAC6. Also, the “Selectivity ratio of HDAC1 over HDAC6” value at HDAC1 was “(252)”. For the same compound, the “Selectivity ratio of HDAC8 over HDAC6” value at HDAC8 is “(106)”.
As for `N#Cc1ccc(-c2cnc3c(NCc4ccc(C(=O)NO)cc4)cccc3c2)cc1` [Compound 23, 4-(((3–(4-Cyanophenyl)quinolin-8-yl)amino)methyl)-N-hydroxybenzamide], the IC50 in the experiment on A549 cells [1] is 3.64 ± 0.66 µM; in the experiment with HCT116 cells, 3.5 ± 0.32 µM.
The like results for `O=C(NO)c1ccc(CNc2cccc3cc(-c4cccc([N+](=O)[O-])c4)cnc23)cc1` [Compound 24, N-Hydroxy-4-(((3–(3-nitrophenyl)quinolin-8-yl)amino)methyl)benzamide] were, in that order, 4.05 ± 0.42 µM and 2.88 ± 0.21 µM.
For the compound `O=C(NO)c1ccc(CNc2cccc3cc(-c4ccco4)cnc23)cc1` [Compound 27, 4-(((3-(Furan-2-yl)quinolin-8-yl)amino)methyl)-N-hydroxybenzamide], the “Selectivity ratio of HDAC2 over HDAC6” value on HDAC2 is recorded as “(62)”. Moreover, the IC50 on HDAC2 was 1.28 µM; at HDAC1, 3.4 µM; in the experiment with A549 cells [1], 3.18 ± 0.19 µM; in the experiment on HCT116 cells it was 2.2 ± 0.17 µM; on HDAC8, 3.14 µM; on HDAC6, 0.0207 µM. In addition, the “Selectivity ratio of HDAC1 over HDAC6” value at HDAC1 was “(164)”. Further, the “Selectivity ratio of HDAC8 over HDAC6” value at HDAC8 was “(152)”.
With `O=C(NO)c1ccc(CNc2cccc3cc(-c4ccoc4)cnc23)cc1` [Compound 28, 4-(((3-(Furan-3-yl)quinolin-8-yl)amino)methyl)-N-hydroxybenzamide], the “Selectivity ratio of HDAC2 over HDAC6” value at HDAC2 is recorded as “(157)”. Further, the IC50 is 2.1 µM at HDAC2; 4.59 µM on HDAC1; 3.77 ± 0.28 µM in the experiment on A549 cells [1]; 3.77 ± 0.21 µM in the experiment on HCT116 cells; 2.91 µM on HDAC8; 0.0134 µM on HDAC6. Further, on HDAC1, the “Selectivity ratio of HDAC1 over HDAC6” value was “(343)”. The “Selectivity ratio of HDAC8 over HDAC6” value at HDAC8 is listed as “(216)”.
With `O=C(NO)c1ccc(CNc2cccc3cc(-c4ccsc4)cnc23)cc1` [Compound 29, N-Hydroxy-4-(((3-(thiophen-3-yl)quinolin-8-yl)amino)methyl)benzamide], the “Selectivity ratio of HDAC2 over HDAC6” value at HDAC2 is reported as “(117)”. The IC50 at HDAC2 is 3.52 µM; on HDAC1, 6 µM; in the experiment with A549 cells [1], 3.84 ± 0.4 µM; in the experiment on HCT116 cells it was 3.59 ± 0.51 µM; on HDAC8 it was 4.93 µM; on HDAC6 it was 0.0301 µM. Moreover, the “Selectivity ratio of HDAC1 over HDAC6” value on HDAC1 is “(199)”. For the same compound, the “Selectivity ratio of HDAC8 over HDAC6” value on HDAC8 was “(164)”.
